Target: T1, Nox2 (Homo sapiens, UniProt P04839)
T1 construct: expressed in transfected cells
T1 sequence (P04839 2-570 limits assumed): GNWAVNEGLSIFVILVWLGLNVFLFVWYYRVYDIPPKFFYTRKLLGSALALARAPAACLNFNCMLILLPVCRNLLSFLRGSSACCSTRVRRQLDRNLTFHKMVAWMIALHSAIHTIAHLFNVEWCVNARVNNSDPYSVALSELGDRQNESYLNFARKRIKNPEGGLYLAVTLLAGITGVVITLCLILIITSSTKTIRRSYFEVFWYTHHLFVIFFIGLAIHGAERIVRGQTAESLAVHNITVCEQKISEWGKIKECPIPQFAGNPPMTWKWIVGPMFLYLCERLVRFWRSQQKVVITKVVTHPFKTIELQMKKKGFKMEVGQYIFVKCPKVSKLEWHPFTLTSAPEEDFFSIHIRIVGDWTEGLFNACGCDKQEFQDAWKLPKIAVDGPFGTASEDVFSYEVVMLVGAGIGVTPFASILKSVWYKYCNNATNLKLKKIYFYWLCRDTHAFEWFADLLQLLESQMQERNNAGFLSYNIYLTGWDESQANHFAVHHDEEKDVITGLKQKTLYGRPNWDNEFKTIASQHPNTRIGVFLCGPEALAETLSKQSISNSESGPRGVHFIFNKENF
Experiment: ROS production of transiently Nox2-transfected Cos cells treated with PMA
Assay type: cell-based
Conditions: 10 μM compound
Procedure: Cell transfection was carried out using Lipofectamine LTX and Plus reagent (Invitrogen, Carlsbad, Calif., USA), according to the manufacturer's instructions. COS-22 cells were transiently co-transfected with pcDNA 3.1-hNox1, pCMVsport 6-hNOXA1 and pcDNA3.1-hNoxO1 (COS-Nox1/NOXO1/NOXA1 cells) or with pcDNA3.1/Hygro-hNox4 (COS-Nox4 cells). Cells were used 24 hr after transfection. Adherent cells were harvested by incubating with 0.05% trypsin/EDTA for 5 min at 37° C. Following addition of DMEM/10% FBS to neutralize the trypsin, the cells were pelleted by centrifugation at 1100×g for 5 min at 4° C. and used for the experiments.
Since p47^phox activation is important not only for Nox2 activity but also for Nox1 hybrid system present mainly in human endothelial cells, the effect of compounds 11g and 11h on ROS production of transiently Nox2-transfected (FIG. 13) or Nox1 hybrid system-transfected Cos cells (FIG. 14) treated with phorbol ester (PMA) was evaluated.

C=C(C)CC1C2c3c(Br)cccc3C(CC2(C)C)N1CCCCC (racemic) [Compound 11g, (±)-(1S,4R,9S)-5-Bromo-3,3-dimethyl-9-(2-methylallyl-10-pentyl-1,2,3,4-tetrahydro-1,4-(epiminomethano)naphthalene]
PMA-stimulated ROS production, Nox2-transfected Cos cells: inhibited

From patent US10906876B2, “Tetrahydroisoquinolines as selective NADPH oxidase 2 inhibitors” (University of Pittsburgh—Of the Commonwealth System of …, priority 2013, dated 2021)
